# Reference: the kinase profiling compilation of Christmann-Franck et al. (2016)
# How the values were obtained:
# Experiment in all cases: radiometric filter-binding kinase assay
# [1] = test system: AKT1 (human), P31749 [S473D]
# [2] = test system: ROCK2 (rat); conditions: accession and sequence are those of the human protein
# [3] = molecular target: EPHB3 (human) (UniProt P54753)
# [4] = molecular target: CSNK2A1 (human) (UniProt P68400)
# [5] = test system: SGK1 (human), O00141 [S422D]
# [6] = molecular target: PAK4 (human) (UniProt O96013)
# [7] = molecular target: MKNK2 (human) (UniProt Q9HBH9)
# [8] = molecular target: RPS6KA1 KD1 KD2 (human) (UniProt Q15418)
# Sequence of RPS6KA1 KD1 KD2 (human) (Q15418 whole entry, looked up): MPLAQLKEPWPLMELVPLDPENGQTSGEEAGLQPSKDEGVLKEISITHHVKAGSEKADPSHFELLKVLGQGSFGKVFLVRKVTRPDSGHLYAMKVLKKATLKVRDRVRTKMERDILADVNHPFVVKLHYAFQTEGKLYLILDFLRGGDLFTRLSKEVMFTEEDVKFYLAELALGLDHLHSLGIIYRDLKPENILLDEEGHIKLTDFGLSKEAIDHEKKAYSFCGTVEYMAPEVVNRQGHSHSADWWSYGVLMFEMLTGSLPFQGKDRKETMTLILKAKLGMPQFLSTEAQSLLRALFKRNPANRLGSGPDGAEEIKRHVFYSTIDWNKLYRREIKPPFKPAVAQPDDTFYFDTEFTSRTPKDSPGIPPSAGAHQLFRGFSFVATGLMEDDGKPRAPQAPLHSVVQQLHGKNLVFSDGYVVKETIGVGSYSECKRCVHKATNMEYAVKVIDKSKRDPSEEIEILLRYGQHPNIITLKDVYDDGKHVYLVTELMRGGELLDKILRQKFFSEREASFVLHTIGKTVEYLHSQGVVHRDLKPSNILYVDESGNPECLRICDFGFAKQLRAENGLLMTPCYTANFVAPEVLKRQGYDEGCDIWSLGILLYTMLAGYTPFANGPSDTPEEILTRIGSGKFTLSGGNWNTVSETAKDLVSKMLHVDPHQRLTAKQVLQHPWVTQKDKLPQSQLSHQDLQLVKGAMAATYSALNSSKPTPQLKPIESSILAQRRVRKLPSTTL
# [9] = molecular target: PIM2 (human) (UniProt Q9P1W9)
# Sequence of PIM2 (human) (Q9P1W9 whole entry, looked up): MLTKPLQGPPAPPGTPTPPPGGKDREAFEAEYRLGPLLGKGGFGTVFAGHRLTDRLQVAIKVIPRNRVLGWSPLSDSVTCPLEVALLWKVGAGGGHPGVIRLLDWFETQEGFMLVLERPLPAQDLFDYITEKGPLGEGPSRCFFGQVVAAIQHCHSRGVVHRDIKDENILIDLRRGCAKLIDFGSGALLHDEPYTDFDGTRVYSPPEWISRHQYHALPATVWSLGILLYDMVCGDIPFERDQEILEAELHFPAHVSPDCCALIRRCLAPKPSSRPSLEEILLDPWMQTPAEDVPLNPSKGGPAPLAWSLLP
# [10] = molecular target: MAPK14 (human) (UniProt Q16539)
# Sequence of MAPK14 (human) (Q16539 whole entry, looked up): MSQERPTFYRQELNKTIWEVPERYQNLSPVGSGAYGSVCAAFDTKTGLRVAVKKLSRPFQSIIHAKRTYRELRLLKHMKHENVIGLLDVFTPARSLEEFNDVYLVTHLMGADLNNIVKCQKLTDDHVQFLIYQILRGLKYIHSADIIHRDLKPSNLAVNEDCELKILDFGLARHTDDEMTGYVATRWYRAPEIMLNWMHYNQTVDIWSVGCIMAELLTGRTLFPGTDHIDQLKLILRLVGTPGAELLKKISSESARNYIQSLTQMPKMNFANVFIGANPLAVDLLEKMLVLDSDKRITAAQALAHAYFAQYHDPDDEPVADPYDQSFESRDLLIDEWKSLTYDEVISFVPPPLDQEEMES
# [11] = molecular target: BRSK2 (human) (UniProt Q8IWQ3)
# [12] = molecular target: RPS6KA3 KD1 KD2 (human) (UniProt P51812)
# [13] = molecular target: MAPK8 (human) (UniProt P45983)
# [14] = molecular target: STK3 (human) (UniProt Q13188)
# [15] = molecular target: PIM1 (human) (UniProt P11309)
# Sequence of PIM1 (human) (P11309 whole entry, looked up): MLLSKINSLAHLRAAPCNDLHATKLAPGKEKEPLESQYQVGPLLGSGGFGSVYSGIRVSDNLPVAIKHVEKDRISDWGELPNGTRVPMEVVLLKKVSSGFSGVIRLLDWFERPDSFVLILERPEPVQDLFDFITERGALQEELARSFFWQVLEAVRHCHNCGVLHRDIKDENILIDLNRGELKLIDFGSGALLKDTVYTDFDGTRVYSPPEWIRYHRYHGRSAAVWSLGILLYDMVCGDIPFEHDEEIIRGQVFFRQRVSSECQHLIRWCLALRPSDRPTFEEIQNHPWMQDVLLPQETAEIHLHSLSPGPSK
# [16] = molecular target: MAPKAPK5 (human) (UniProt Q8IW41)
# [17] = molecular target: DYRK3 (human) (UniProt O43781)
# [18] = test system: RPS6KB1 (human), P23443 [T412E]
# [19] = molecular target: PLK1 (human) (UniProt P53350)
# Sequence of PLK1 (human) (P53350 whole entry, looked up): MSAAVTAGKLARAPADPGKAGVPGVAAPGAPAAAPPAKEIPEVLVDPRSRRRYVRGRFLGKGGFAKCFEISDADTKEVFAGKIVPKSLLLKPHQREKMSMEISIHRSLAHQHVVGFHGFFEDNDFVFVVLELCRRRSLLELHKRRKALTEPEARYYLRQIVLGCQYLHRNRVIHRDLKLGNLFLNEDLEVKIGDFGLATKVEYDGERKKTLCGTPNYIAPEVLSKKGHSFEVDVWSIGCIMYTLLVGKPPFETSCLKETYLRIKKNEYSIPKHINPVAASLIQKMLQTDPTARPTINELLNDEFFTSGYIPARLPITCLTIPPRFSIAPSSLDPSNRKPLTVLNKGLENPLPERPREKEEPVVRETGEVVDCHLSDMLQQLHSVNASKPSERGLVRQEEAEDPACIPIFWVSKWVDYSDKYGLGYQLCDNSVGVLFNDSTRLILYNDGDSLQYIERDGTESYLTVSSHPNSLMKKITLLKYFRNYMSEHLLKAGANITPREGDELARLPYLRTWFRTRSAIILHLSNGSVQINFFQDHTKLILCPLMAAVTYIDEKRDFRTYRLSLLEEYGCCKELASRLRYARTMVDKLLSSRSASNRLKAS
# [20] = molecular target: MAPK11 (human) (UniProt Q15759)
# Sequence of MAPK11 (human) (Q15759 whole entry, looked up): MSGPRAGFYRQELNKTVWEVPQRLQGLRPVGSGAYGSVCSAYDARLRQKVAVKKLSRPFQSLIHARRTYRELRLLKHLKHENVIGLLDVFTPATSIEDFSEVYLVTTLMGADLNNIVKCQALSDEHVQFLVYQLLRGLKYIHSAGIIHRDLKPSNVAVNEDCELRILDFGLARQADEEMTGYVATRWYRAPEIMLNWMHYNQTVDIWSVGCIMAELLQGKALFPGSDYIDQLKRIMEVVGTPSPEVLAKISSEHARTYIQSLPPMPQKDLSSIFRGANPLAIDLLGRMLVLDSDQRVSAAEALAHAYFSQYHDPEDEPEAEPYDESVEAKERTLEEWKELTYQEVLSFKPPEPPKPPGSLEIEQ
# [21] = molecular target: MAPK12 (human) (UniProt P53778)
# [22] = molecular target: IKBKE (human) (UniProt Q14164)
# Sequence of IKBKE (human) (Q14164 whole entry, looked up): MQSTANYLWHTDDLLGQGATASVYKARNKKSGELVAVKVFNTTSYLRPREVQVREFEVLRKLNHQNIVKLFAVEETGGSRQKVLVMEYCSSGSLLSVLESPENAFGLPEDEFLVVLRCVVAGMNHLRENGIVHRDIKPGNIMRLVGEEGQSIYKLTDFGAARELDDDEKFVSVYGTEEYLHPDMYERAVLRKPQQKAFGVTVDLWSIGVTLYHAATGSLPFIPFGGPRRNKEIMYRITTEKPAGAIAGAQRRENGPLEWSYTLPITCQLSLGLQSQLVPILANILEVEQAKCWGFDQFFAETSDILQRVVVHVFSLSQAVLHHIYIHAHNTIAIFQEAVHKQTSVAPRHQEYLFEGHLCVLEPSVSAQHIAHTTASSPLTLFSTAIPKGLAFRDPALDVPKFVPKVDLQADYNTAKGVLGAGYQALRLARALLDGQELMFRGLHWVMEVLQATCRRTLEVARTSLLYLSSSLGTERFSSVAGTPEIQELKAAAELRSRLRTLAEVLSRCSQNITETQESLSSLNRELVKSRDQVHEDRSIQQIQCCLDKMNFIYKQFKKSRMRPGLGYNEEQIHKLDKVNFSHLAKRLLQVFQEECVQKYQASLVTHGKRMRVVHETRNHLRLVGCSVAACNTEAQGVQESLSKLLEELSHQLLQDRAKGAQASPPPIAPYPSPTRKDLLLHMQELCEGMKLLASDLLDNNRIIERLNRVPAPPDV
# [23] = molecular target: PIM3 (human) (UniProt Q86V86)
# [24] = molecular target: MAPK3 (human) (UniProt P27361)
# [25] = molecular target: TBK1 (human) (UniProt Q9UHD2)
# Sequence of TBK1 (human) (Q9UHD2 whole entry, looked up): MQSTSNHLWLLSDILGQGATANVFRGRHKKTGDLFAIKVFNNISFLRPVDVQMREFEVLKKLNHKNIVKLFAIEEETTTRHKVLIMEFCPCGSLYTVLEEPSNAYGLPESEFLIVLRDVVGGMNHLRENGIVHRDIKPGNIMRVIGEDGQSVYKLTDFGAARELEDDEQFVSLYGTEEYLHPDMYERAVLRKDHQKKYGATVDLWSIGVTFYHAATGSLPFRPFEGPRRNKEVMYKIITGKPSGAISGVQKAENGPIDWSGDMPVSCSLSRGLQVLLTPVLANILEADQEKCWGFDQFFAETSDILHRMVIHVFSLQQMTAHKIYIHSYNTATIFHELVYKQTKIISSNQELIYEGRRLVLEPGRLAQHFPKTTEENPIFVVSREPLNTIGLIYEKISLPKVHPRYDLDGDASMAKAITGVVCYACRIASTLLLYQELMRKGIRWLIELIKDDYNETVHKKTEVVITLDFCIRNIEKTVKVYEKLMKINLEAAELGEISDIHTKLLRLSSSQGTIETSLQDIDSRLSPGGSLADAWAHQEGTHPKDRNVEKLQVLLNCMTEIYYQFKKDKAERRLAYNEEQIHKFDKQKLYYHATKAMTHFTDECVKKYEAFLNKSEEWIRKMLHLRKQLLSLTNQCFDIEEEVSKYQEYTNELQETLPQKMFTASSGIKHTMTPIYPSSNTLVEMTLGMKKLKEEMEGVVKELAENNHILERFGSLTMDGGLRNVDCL
# [26] = molecular target: DYRK1A (human) (UniProt Q13627)
# [27] = molecular target: IKBKB (human) (UniProt O14920)
# Sequence of SGK1 (human), O00141 [S422D] (O00141 whole entry S422D, looked up): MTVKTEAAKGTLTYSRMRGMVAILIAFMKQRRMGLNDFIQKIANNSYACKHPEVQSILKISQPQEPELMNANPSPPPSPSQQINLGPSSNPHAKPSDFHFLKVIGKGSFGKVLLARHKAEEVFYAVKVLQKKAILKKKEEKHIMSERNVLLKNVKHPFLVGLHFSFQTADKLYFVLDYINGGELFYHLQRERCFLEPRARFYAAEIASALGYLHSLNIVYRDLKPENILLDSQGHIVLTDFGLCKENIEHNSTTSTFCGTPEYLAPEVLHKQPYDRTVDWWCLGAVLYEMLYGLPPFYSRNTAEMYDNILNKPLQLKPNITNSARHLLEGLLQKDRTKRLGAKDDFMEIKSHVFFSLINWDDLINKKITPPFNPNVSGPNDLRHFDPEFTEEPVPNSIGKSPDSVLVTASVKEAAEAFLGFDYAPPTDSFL
structure (smiles),measurement,setting,value
Cn1c(=O)c2c(ncn2C)n(C)c1=O,residual activity,[1]; compound 0.1 µM,90%
same,residual activity,[1]; compound 1.0 µM,101%
same,residual activity,[2]; compound 0.1 µM,91%
same,residual activity,[2]; compound 1.0 µM,93%
same,residual activity,[3]; compound 0.1 µM,92%
same,residual activity,[3]; compound 1.0 µM,97%
same,residual activity,[4]; compound 0.1 µM,115%
same,residual activity,[4]; compound 1.0 µM,106%
same,residual activity,[5]; compound 0.1 µM,102%
same,residual activity,[6]; compound 0.1 µM,99%
same,residual activity,[6]; compound 1.0 µM,100%
same,residual activity,[7]; compound 0.1 µM,87%
same,residual activity,[7]; compound 1.0 µM,91%
same,residual activity,[8]; compound 0.1 µM,74%
same,residual activity,[8]; compound 1.0 µM,78%
same,residual activity,[9]; compound 0.1 µM,113%
same,residual activity,[10]; compound 0.1 µM,88%
same,residual activity,[10]; compound 1.0 µM,89%
same,residual activity,[11]; compound 0.1 µM,99%
same,residual activity,[11]; compound 1.0 µM,97%
same,residual activity,[12]; compound 0.1 µM,98%
same,residual activity,[12]; compound 1.0 µM,79%
same,residual activity,[13]; compound 0.1 µM,92%
same,residual activity,[13]; compound 1.0 µM,78%
same,residual activity,[14]; compound 0.1 µM,97%
same,residual activity,[14]; compound 1.0 µM,89%
same,residual activity,[15]; compound 0.1 µM,90%
same,residual activity,[15]; compound 1.0 µM,97%
same,residual activity,[16]; compound 0.1 µM,96%
same,residual activity,[16]; compound 1.0 µM,86%
same,residual activity,[17]; compound 0.1 µM,96%
same,residual activity,[17]; compound 1.0 µM,98%
same,residual activity,[18]; compound 0.1 µM,100%
same,residual activity,[18]; compound 1.0 µM,98%
same,residual activity,[19]; compound 0.1 µM,92%
same,residual activity,[19]; compound 1.0 µM,95%
same,residual activity,[20]; compound 0.1 µM,107%
same,residual activity,[20]; compound 1.0 µM,104%
same,residual activity,[21]; compound 0.1 µM,97%
same,residual activity,[21]; compound 1.0 µM,110%
same,residual activity,[22]; compound 0.1 µM,87%
same,residual activity,[22]; compound 1.0 µM,90%
same,residual activity,[23]; compound 0.1 µM,99%
same,residual activity,[23]; compound 1.0 µM,97%
same,residual activity,[24]; compound 0.1 µM,99%
same,residual activity,[24]; compound 1.0 µM,113%
same,residual activity,[25]; compound 0.1 µM,92%
same,residual activity,[25]; compound 1.0 µM,96%
same,residual activity,[26]; compound 0.1 µM,92%
same,residual activity,[26]; compound 1.0 µM,96%
same,residual activity,[27]; compound 0.1 µM,90%
same,residual activity,[27]; compound 1.0 µM,100%
C[C@H]1CCCC(=O)CCC/C=C/c2cc(O)cc(O)c2C(=O)O1,residual activity,[1]; compound 10.0 µM,95%
same,residual activity,[2]; compound 1.0 µM,82%
same,residual activity,[2]; compound 10.0 µM,81%
same,residual activity,[3]; compound 1.0 µM,85%
same,residual activity,[3]; compound 10.0 µM,85%
same,residual activity,[4]; compound 1.0 µM,97%
same,residual activity,[4]; compound 10.0 µM,96%
same,residual activity,[5]; compound 1.0 µM,93%
same,residual activity,[5]; compound 10.0 µM,93%
same,residual activity,[6]; compound 1.0 µM,95%
same,residual activity,[6]; compound 10.0 µM,90%
same,residual activity,[7]; compound 1.0 µM,64%
same,residual activity,[7]; compound 10.0 µM,23%
same,residual activity,[8]; compound 1.0 µM,89%
same,residual activity,[8]; compound 10.0 µM,41%
same,residual activity,[9]; compound 1.0 µM,86%
same,residual activity,[9]; compound 10.0 µM,45%
same,residual activity,[10]; compound 1.0 µM,93%
same,residual activity,[10]; compound 10.0 µM,85%
same,residual activity,[11]; compound 1.0 µM,54%
same,residual activity,[11]; compound 10.0 µM,17%
same,residual activity,[12]; compound 1.0 µM,80%
same,residual activity,[12]; compound 10.0 µM,52%
same,residual activity,[13]; compound 1.0 µM,88%
same,residual activity,[13]; compound 10.0 µM,80%
same,residual activity,[14]; compound 1.0 µM,119%
same,residual activity,[14]; compound 10.0 µM,113%
same,residual activity,[15]; compound 1.0 µM,51%
same,residual activity,[15]; compound 10.0 µM,11%
same,residual activity,[16]; compound 1.0 µM,97%
same,residual activity,[16]; compound 10.0 µM,79%
same,residual activity,[17]; compound 1.0 µM,100%
same,residual activity,[17]; compound 10.0 µM,62%
same,residual activity,[18]; compound 1.0 µM,106%
same,residual activity,[18]; compound 10.0 µM,61%
same,residual activity,[19]; compound 1.0 µM,76%
same,residual activity,[19]; compound 10.0 µM,63%
same,residual activity,[20]; compound 1.0 µM,108%
same,residual activity,[20]; compound 10.0 µM,101%
same,residual activity,[21]; compound 1.0 µM,97%
same,residual activity,[21]; compound 10.0 µM,93%
same,residual activity,[22]; compound 1.0 µM,95%
same,residual activity,[22]; compound 10.0 µM,82%
same,residual activity,[23]; compound 1.0 µM,49%
same,residual activity,[23]; compound 10.0 µM,18%
same,residual activity,[24]; compound 1.0 µM,113%
same,residual activity,[24]; compound 10.0 µM,107%
same,residual activity,[25]; compound 1.0 µM,82%
same,residual activity,[25]; compound 10.0 µM,80%
same,residual activity,[26]; compound 10.0 µM,32%
same,residual activity,[27]; compound 1.0 µM,101%
same,residual activity,[27]; compound 10.0 µM,78%
NC(=O)Nc1ccc2c(c1)/C(=C/c1cc(-c3cccnc3)c[nH]1)C(=O)N2,residual activity,[1]; compound 0.1 µM,85%
same,residual activity,[1]; compound 1.0 µM,69%
same,residual activity,[1]; compound 10.0 µM,62%
same,residual activity,[2]; compound 1.0 µM,37%
same,residual activity,[2]; compound 10.0 µM,7%
same,residual activity,[3]; compound 0.1 µM,107%
same,residual activity,[3]; compound 1.0 µM,90%
same,residual activity,[3]; compound 10.0 µM,53%
same,residual activity,[4]; compound 0.1 µM,93%
same,residual activity,[4]; compound 1.0 µM,65%
same,residual activity,[4]; compound 10.0 µM,21%
same,residual activity,[5]; compound 0.1 µM,77%
same,residual activity,[5]; compound 1.0 µM,32%
same,residual activity,[5]; compound 10.0 µM,6%
same,residual activity,[6]; compound 0.1 µM,64%
same,residual activity,[6]; compound 1.0 µM,31%
same,residual activity,[7]; compound 0.1 µM,75%
same,residual activity,[7]; compound 1.0 µM,46%
same,residual activity,[7]; compound 10.0 µM,16%
same,residual activity,[8]; compound 0.1 µM,24%
same,residual activity,[8]; compound 1.0 µM,10%
same,residual activity,[8]; compound 10.0 µM,5%
same,residual activity,[9]; compound 0.1 µM,76%
same,residual activity,[9]; compound 1.0 µM,34%
same,residual activity,[9]; compound 10.0 µM,8%
same,residual activity,[10]; compound 0.1 µM,81%
same,residual activity,[10]; compound 1.0 µM,80%
same,residual activity,[10]; compound 10.0 µM,45%
same,residual activity,[11]; compound 0.1 µM,13%
same,residual activity,[11]; compound 1.0 µM,10%
same,residual activity,[11]; compound 10.0 µM,18%
same,residual activity,[12]; compound 0.1 µM,38%
same,residual activity,[12]; compound 1.0 µM,32%
same,residual activity,[12]; compound 10.0 µM,22%
same,residual activity,[13]; compound 0.1 µM,124%
same,residual activity,[13]; compound 1.0 µM,99%
same,residual activity,[13]; compound 10.0 µM,48%
same,residual activity,[14]; compound 0.1 µM,8%
same,residual activity,[14]; compound 1.0 µM,2%
same,residual activity,[14]; compound 10.0 µM,0%
same,residual activity,[15]; compound 0.1 µM,43%
same,residual activity,[15]; compound 1.0 µM,9%
same,residual activity,[15]; compound 10.0 µM,2%
same,residual activity,[16]; compound 0.1 µM,95%
same,residual activity,[16]; compound 1.0 µM,50%
same,residual activity,[16]; compound 10.0 µM,8%
same,residual activity,[17]; compound 0.1 µM,19%
same,residual activity,[17]; compound 1.0 µM,4%
same,residual activity,[17]; compound 10.0 µM,1%
same,residual activity,[18]; compound 0.1 µM,76%
same,residual activity,[18]; compound 1.0 µM,32%
same,residual activity,[18]; compound 10.0 µM,12%
same,residual activity,[19]; compound 0.1 µM,86%
same,residual activity,[19]; compound 1.0 µM,42%
same,residual activity,[19]; compound 10.0 µM,18%
same,residual activity,[20]; compound 0.1 µM,103%
same,residual activity,[20]; compound 1.0 µM,80%
same,residual activity,[20]; compound 10.0 µM,49%
same,residual activity,[21]; compound 0.1 µM,93%
same,residual activity,[21]; compound 1.0 µM,86%
same,residual activity,[22]; compound 0.1 µM,51%
same,residual activity,[22]; compound 1.0 µM,12%
same,residual activity,[22]; compound 10.0 µM,11%
same,residual activity,[23]; compound 0.1 µM,30%
same,residual activity,[23]; compound 1.0 µM,9%
same,residual activity,[23]; compound 10.0 µM,7%
same,residual activity,[24]; compound 0.1 µM,71%
same,residual activity,[24]; compound 10.0 µM,4%
same,residual activity,[25]; compound 0.1 µM,27%
same,residual activity,[25]; compound 1.0 µM,7%
same,residual activity,[25]; compound 10.0 µM,11%
same,residual activity,[26]; compound 0.1 µM,42%
same,residual activity,[26]; compound 1.0 µM,11%
same,residual activity,[27]; compound 0.1 µM,75%
same,residual activity,[27]; compound 10.0 µM,26%
